“And” between values parts separate entries of the source, which are not always exact repeats. Identical values can stand only once.
Tests used:
db/db mice [1] = assay: Weekly fasting glucose levels of db/db mice; format: in vivo; conditions: for Weekly fasting glucose levels of db/db mice (Figure 5a): individual mice 1-10, in mmol/L; for Fasting blood glucose level at the end of the treatment: mouse, in vivo
Description: The lean wild type control and the db/db control mice were given equal vehicle volume (0.5% CMC-Na solution). All mice were monitored for food intake, body weight, and fasting blood glucose during the 35-day trial. Glucose tolerance test (GTT) and insulin resistance test (ITT) were performed at 4 and 5 weeks of treatment, respectively. Metabolic analysis was performed at 5 weeks of treatment. At the end of the study, blood samples were taken through the retroorbital venous sinus of mice, fat depots (brown fat, inguinal subcutaneous fat, epididymal fat, perirenal fat and mesenteric fat depot) were dissected, weighed, and immediately frozen in liquid nitrogen and stored at −80 °C until required. Weight of fat depots are expressed in percentage (fat depots weight /bodyweight * 100%).

db/db mice [2] = assay: Insulin tolerance test (ITT), AUC and initial slope; format: in vivo; conditions: for blood glucose level: individual mice, in mmol/L (unit assumed); for Initial Slope: individual animals (Figure S10a)
Description: Mice were fasted for 4 h for insulin resistance test and intraperitoneally injected with 1 unit/kg of insulin. Blood glucose levels were measured from the tail vein blood at 0, 15, 30, 45, 60, 90, and 120 min after injection. Plasma insulin levels were measured using an ultrasensitive mouse insulin ELISA kit (Nanjing Jiancheng Bioengineering Institute, Nanjing, China).

TNF-α and IL-6 [3] = assay: Serum levels of TNF-α and IL-6 (ELISA); format: in vivo, mice; conditions: for IL-6: Figure 5i, individual values
Description: (§1) The serum was collected by centrifugation at 3000 × g at 4 °C for 15 min and stored at −80 °C until analysis. TG, TC, LDL-C, HDL-C, and FFA were routinely tested on a Chemray 240 automatic biochemical analyzer (Chemray 240, Shenzhen, China). Serum levels of mouse adiponectin, interleukin6 (IL-6), tumor necrosis factor-α (TNF-α) were measured using commercial enzyme-linked immunosorbent assay (ELISA) kits (Nanjing Jiancheng Bioengineering Institute, Nanjing, China) and according to the manufacturer’s instructions. The levels of IL-6, TNF-α in 3T3-L1 adipocyte culture supernatant were also detected by ELISA.

[4] = tested on: F4/80-positive macrophages; assay: Immunohistochemical staining of eWAT for F4/80; format: in vivo, mice; conditions: for Quantification of immunohistochemical staining: Figure 5k, individual values
Description: The adipose tissue was fixed overnight in 4% paraformaldehyde, then embedded in paraffin and cut into 5 µm thick slices. Tissue sections were stained with hematoxylin and eosin (H&E). For immunohistochemistry, sections were incubated with primary antibodies against F4/80 (1:100 dilution) diluted in the blocking solution at 4 °C overnight. The tissue sections were then incubated with the horseradish peroxidase (HRP)-conjugated secondary antibody at room temperature for 2 h. Finally, the sections were developed with diaminobenzidine (DAB) and counterstained with hematoxylin. Images were obtained under a microscope. To quantify the F4/80-positive macrophages, two random fields per sample were analyzed by Image J software. The IHC profiler plugin of ImageJ was used to calculate the F4/80 positive area.

TNF-α and IL-6 [5] = assay: TNF-α and IL-6 in supernatant of TNF-α induced 3T3-L1 adipocytes (ELISA); format: cell-based, Murine; set-up: levels of TNF-α / levels of IL-6: unit not given here
Description: We next examined the role of BJ on TNF-α induced inflammation of differentiated 3T3-L1 adipocytes.
as §1

For CC(C)Cc1ccc(C(C)C(=O)[O-])cc1.COc1ccc2cc3[n+](cc2c1OC)CCc1cc2c(cc1-3)OCO2.O.O.O.O [BJ, berberine-ibuprofen], the “Weekly fasting glucose levels of db/db mice (Figure 5a)” value (from here on “Weekly fasting glucose levels”) (db/db mice [1]; BJ 75mg/kg, 1st of 6 weekly columns (time not given)) was 10.4 and 12.5 and 9.4 and 17.8 and 11.6 and 18.6 and 12.1 and 17.5 and 20.6 and 14.4, the “Weekly fasting glucose levels” value (db/db mice [1]; BJ 75mg/kg, 2nd of 6 weekly columns (time not given)) was 21.7 and 12.2 and 16.6 and 18.3 and 16.2 and 21.2 and 15.0 and 18.5 and 24.4 and 17.9 and the “Weekly fasting glucose levels” value (db/db mice [1]; BJ 75mg/kg, 3rd of 6 weekly columns (time not given)) was 27.0 and 17.1 and 16.6 and 26.0 and 22.1 and 24.6 and 22.7 and 19.1 and 24.8 and 20.1. For the same molecule, the “Weekly fasting glucose levels” value (db/db mice [1]; BJ 75mg/kg, 4th of 6 weekly (time not given)) was 16.0 and 19.4 and 17.3 and 23.1 and 21.0 and 18.7 and 20.0 and 16.7 and 18.3 and 19.6, the “Weekly fasting glucose levels” value (db/db mice [1]; BJ 75mg/kg, 5th of 6 weekly (time not given)) was 8.5 and 16.1 and 10.1 and 17.8 and 19.9 and 13.5 and 18.2 and 12.3 and 18.1 and 11.2 and the “Weekly fasting glucose levels” value (db/db mice [1]; BJ 75mg/kg, 6th of 6 weekly (time not given)) was 8.3 and 14.2 and 11.5 and 16.0 and 17.3 and 15.9 and 14.1 and 11.0 and 16.7 and 10.7. For the same molecule, the “Weekly fasting glucose levels” value (db/db mice [1]; BJ 150mg/kg, 1st of 6 weekly columns (time not given)) was 19.4 and 13.4 and 14.8 and 9.9 and 15.4 and 23.3 and 12.6, the “Weekly fasting glucose levels” value (db/db mice [1]; BJ 150mg/kg, 2nd of 6 weekly columns (time not given)) was 13.5 and 10.8 and 19.3 and 10.6 and 16.2 and 16.8 and 22.9 and 16.4 and the “Weekly fasting glucose levels” value (db/db mice [1]; BJ 150mg/kg, 3rd of 6 weekly columns (time not given)) was 19.8 and 11.7 and 18.2 and 15.6 and 20.6 and 18.3. For the same molecule, the “Weekly fasting glucose levels” value (db/db mice [1]; BJ 150mg/kg, 4th of 6 weekly (time not given)) was 11.5 and 5.7 and 10.5 and 13.7 and 14.1 and 14.7, the “Weekly fasting glucose levels” value (db/db mice [1]; BJ 150mg/kg, 5th of 6 weekly (time not given)) was 6.7 and 14.3 and 13.7 and 9.3 and 8.8 and 13.9 and the “Weekly fasting glucose levels” value (db/db mice [1]; BJ 150mg/kg, 6th of 6 weekly (time not given)) was 6.5 and 5.0 and 10.0 and 11.4 and 7.4 and 7.3 and 17.8. The “Blood (serum) glucose levels compared with vehicle” value (db/db mice [1]; db/db mice, BJ 75 and 150 mg/kg, BBR 150 mg/kg, Ibu 150 mg/kg) was “slowed the increase in glucose levels”, the “Fasting blood glucose level at the end of the treatment” value (db/db mice [1]; 75 mg/kg) was 13.6 ± 3.0 mmol/L and the “Fasting blood glucose level at the end of the treatment” value (db/db mice [1]; 150 mg/kg) was 9.4 ± 3.6 mmol/L. The blood glucose level (db/db mice [2]; BJ 75mg/kg, time column 1 of 7 (time not printed)) was 18.5 and 19.1 and 12.0 and 14.2 and 11.0 and 11.7 and 16.7 and 19.2 and 21.8 and 15.9, the blood glucose level (db/db mice [2]; BJ 75mg/kg, time column 2 of 7 (time not given)) was 19.2 and 21.2 and 12.1 and 14.6 and 8.3 and 11.4 and 18.6 and 22.2 and 23.5 and 18.5 and the blood glucose level (db/db mice [2]; BJ 75mg/kg, time column 3 of 7 (time not given)) was 18.3 and 19.0 and 10.1 and 10.5 and 8.8 and 7.5 and 13.7 and 19.3 and 20.1 and 11.6. For the same molecule, the blood glucose level (db/db mice [2]; BJ 75mg/kg, time column 4 of 7 (time not given)) was 13.0 and 15.2 and 7.6 and 10.0 and 6.8 and 7.5 and 12.1 and 16.3 and 20.8 and 11.0, the blood glucose level (db/db mice [2]; BJ 75mg/kg, time column 5 of 7 (time not given)) was 12.4 and 16.1 and 8.4 and 8.8 and 5.9 and 7.1 and 11.2 and 16.2 and 16.3 and 10.1 and the blood glucose level (db/db mice [2]; BJ 75mg/kg, time column 6 of 7 (time not given)) was 10.2 and 13.2 and 6.9 and 8.2 and 5.3 and 6.4 and 9.7 and 13.6 and 14.6 and 9.4. The blood glucose level (db/db mice [2]; BJ 75mg/kg, time column 7 of 7 (time not printed)) was 12.1 and 12.2 and 9.0 and 9.8 and 4.9 and 5.5 and 10.8 and 12.3 and 14.9 and 10.0, the blood glucose level (db/db mice [2]; BJ 150mg/kg, time column 1 of 7 (time not printed)) was 18.0 and 17.8 and 9.3 and 14.4 and 11.4 and the blood glucose level (db/db mice [2]; BJ 150mg/kg, time column 2 of 7 (time not given)) was 13.2 and 15.0 and 7.7 and 11.7 and 11.6. The blood glucose level (db/db mice [2]; BJ 150mg/kg, time column 3 of 7 (time not given)) was 7.7 and 7.0 and 1.7 and 6.1, the blood glucose level (db/db mice [2]; BJ 150mg/kg, time column 4 of 7 (time not given)) was 7.2 and 6.7 and 1.5 and 6.3 and the blood glucose level (db/db mice [2]; BJ 150mg/kg, time column 5 of 7 (time not given)) was 9.0 and 8.2 and 3.3 and 5.2. For the same molecule, the blood glucose level (db/db mice [2]; BJ 150mg/kg, time column 6 of 7 (time not given)) was 8.2 and 7.6 and 2.8 and 7.0, the blood glucose level (db/db mice [2]; BJ 150mg/kg, time column 7 of 7 (time not printed)) was 10.4 and 7.7 and 4.0 and 7.3 and the “Insulin sensitivity (ITT)” value (db/db mice [2]; db/db mice, 150 mg/kg, week 5) was “more sensitive to insulin stimulation”. For the same molecule, the “Initial Slope” value (db/db mice [2]; db/db mice, BJ 75mg/kg) was -0.0733 mmol/L/min and -0.14 mmol/L/min and -0.1 mmol/L/min and 0.0033 mmol/L/min and -0.0567 mmol/L/min and -0.1433 mmol/L/min and -0.0067 mmol/L/min and -0.0033 mmol/L/min and -0.0633 mmol/L/min and -0.1233 mmol/L/min, the “Initial Slope” value (db/db mice [2]; db/db mice, BJ 150mg/kg) was -0.1767 mmol/L/min and -0.22 mmol/L/min and -0.15 mmol/L/min and -0.28 mmol/L/min and -0.3433 mmol/L/min and -0.36 mmol/L/min and -0.2533 mmol/L/min and -0.2467 mmol/L/min and the IL-6 (TNF-α and IL-6 [3]; BJ 75mg/kg) was 26.97 and 31.48 and 28.06 and 26.92 and 26.5 and 27.07. The IL-6 (TNF-α and IL-6 [3]; BJ 150mg/kg) was 19.1 and 22.16 and 23.89 and 18.97 and 21.55 and 28.79, the “Serum TNF-α and IL-6 levels” value (TNF-α and IL-6 [3]; db/db mice, 5 weeks of treatment) was “significantly lower than those in the vehicle-treated group” and the “Quantification of immunohistochemical staining” value ([4]; BJ 75mg/kg) was 0.9922 and 0.9735 and 1.1881 and 1.5389 and 0.7221 and 0.7355. For the same molecule, the “Quantification of immunohistochemical staining” value ([4]; BJ 150mg/kg) was 0.2082 and 0.4937 and 0.5395 and 0.2725 and 0.374 and 0.2768, the “Proportion of F4/80-positive macrophages around adipocytes” value ([4]; db/db mice, epididymal fat pads) was “lower than that of the vehicle-treated db/db mice” and the “Levels of TNF-α and IL-6 in the supernatant” value (TNF-α and IL-6 [5]; 3T3-L1 adipocytes treated with TNF-α) was “significantly reduced the levels of TNF-α and IL-6”. The “levels of TNF-α” value (TNF-α and IL-6 [5]; Figure 7e, TNF-α(50ng/ml)+10μM BJ, replicates) was 96.425 and 110.916 and 111.046 and 97.6978 and 106.64 and 114.538.
